One test addresses JAK2 kinase domain (JH1) (Homo sapiens (Human), UniProt O60674). In words: JAK2 Radioactive Kinase Assay. Type of test: biochemical. The following applies: for inhibition at 10 µM: read-out: JAK2 JH1% Inhibition @ 10 μM. The procedure:
(§1) The Tyk2 and JAK2 radioactive kinase assay measures the percent inhibition at the Tyk2 kinase domain (DH1) and the percent inhibition at the JAK2 kinase domain (JH1). Results of the assay are expressed as percent inhibition at 10 μM.

Another test has as its target Tyk2 kinase domain (DH1) (Homo sapiens (Human), UniProt P29597). In words: Tyk2 Radioactive Kinase Assay. Type of test: biochemical. The settings on record: for inhibition at 10 µM: read-out: Tyk2 JH1% Inhibition @ 10 μM. The procedure:
as §1

Where two headings read alike, the source gives them in different places. A value given as a limit tells only on which side of the number the result lay.

JAK2 kinase domain (JH1), sequence (O60674 849-1124): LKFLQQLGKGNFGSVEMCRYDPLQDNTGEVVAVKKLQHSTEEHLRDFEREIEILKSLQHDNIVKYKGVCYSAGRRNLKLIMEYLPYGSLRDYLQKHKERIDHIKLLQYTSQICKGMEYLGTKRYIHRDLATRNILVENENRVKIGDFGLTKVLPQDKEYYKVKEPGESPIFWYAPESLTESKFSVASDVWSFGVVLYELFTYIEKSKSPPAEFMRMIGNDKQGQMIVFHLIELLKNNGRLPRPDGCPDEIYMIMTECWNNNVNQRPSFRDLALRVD
Tyk2 kinase domain (DH1), sequence (P29597 897-1176): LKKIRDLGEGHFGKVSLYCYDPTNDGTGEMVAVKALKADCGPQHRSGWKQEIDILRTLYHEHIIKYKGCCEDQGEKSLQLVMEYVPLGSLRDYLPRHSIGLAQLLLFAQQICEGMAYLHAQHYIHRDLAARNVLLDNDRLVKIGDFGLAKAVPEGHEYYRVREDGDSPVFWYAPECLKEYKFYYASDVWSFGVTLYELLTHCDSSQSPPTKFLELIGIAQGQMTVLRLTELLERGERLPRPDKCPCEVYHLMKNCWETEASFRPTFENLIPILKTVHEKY

For the molecule `CNc1cc(Nc2cc(Cl)cn(C3CCOCC3)c2=O)nc2c(C(=O)N[C@H]3CC[C@@H]3O)cnn12` [I-826], the inhibition at 10 µM on JAK2 kinase domain (JH1) (10 μM compound, 10 μM ATP) was less than 50%; on Tyk2 kinase domain (DH1) (10 μM compound, 10 μM ATP), less than 50%.

On to `CNc1cc(Nc2cccc(N3CCO[C@@]4(CCOC4)C3)n2)nc2c(C(=O)NC3CC3)cnn12` [I-828], for which the inhibition at 10 µM is less than 50% at JAK2 kinase domain (JH1) (10 μM compound, 10 μM ATP) and less than 50% on Tyk2 kinase domain (DH1) (10 μM compound, 10 μM ATP).

For `CNc1cc(-c2cn(CCN3CCOCC3)c3ncccc23)nc2c(C(=O)N[C@@H]3CC[C@H]3O)cnn12` [I-835], the inhibition at 10 µM at JAK2 kinase domain (JH1) (10 μM compound, 10 μM ATP) was less than 50%; on Tyk2 kinase domain (DH1) (10 μM compound, 10 μM ATP), less than 50%.

For `CNc1cc(Nc2cccn([C@H]3CCC[C@@H](OC)C3)c2=O)nc2c(C(=O)N[C@@H]3C[C@@H]3F)cnn12` [I-839], the inhibition at 10 µM at JAK2 kinase domain (JH1) (10 μM compound, 10 μM ATP) was less than 50%; on Tyk2 kinase domain (DH1) (10 μM compound, 10 μM ATP), less than 50%.

Regarding `CNc1cc(Nc2cccn([C@@H]3C[C@H]3F)c2=O)nc2c(C(=O)NC3CC3)cnn12` [I-866], the inhibition at 10 µM at JAK2 kinase domain (JH1) (10 μM compound, 10 μM ATP) is less than 50%; on Tyk2 kinase domain (DH1) (10 μM compound, 10 μM ATP), less than 50%.

On to `CNc1cc(Nc2cccn(C3CC4(COC4)C3)c2=O)nc2c(C(=O)N[C@H]3CC[C@H]3O)cnn12` [I-870], for which the inhibition at 10 µM at JAK2 kinase domain (JH1) (10 μM compound, 10 μM ATP) was less than 50%; at Tyk2 kinase domain (DH1) (10 μM compound, 10 μM ATP) it was less than 50%.

With `CNc1cc(Nc2cccn(C3CCN(CCF)CC3)c2=O)nc2c(C(=O)N[C@H]3CC[C@H]3O)cnn12` [I-896], the “JAK2 JH1% Inhibition @ 10 μM” value on JAK2 kinase domain (JH1) (10 μM compound, 10 μM ATP) is “A (percent inhibition at 10 μM lower than 50)”. At Tyk2 kinase domain (DH1) (10 μM compound, 10 μM ATP), the “Tyk2 JH1% Inhibition @ 10 μM” value was “A (percent inhibition at 10 μM lower than 50)”.

On to `CNc1cc(Nc2cccn(C3CCN(CCF)CC3)c2=O)nc2c(C(=O)N[C@@H]3CC[C@H]3O)cnn12` [I-898], for which the “JAK2 JH1% Inhibition @ 10 μM” value at JAK2 kinase domain (JH1) (10 μM compound, 10 μM ATP) is “A (percent inhibition at 10 μM lower than 50)”. The “Tyk2 JH1% Inhibition @ 10 μM” value at Tyk2 kinase domain (DH1) (10 μM compound, 10 μM ATP) was “A (percent inhibition at 10 μM lower than 50)”.

As to `CNc1cc(-c2cn(CCN3CCN(C)CC3)c3ncccc23)nc2c(C(=O)N[C@H]3CC[C@H]3O)cnn12` [I-906, N-((1S,2R)-2-hydroxycyclobutyl)-7-(methylamino)-5-(1-(2-(4-methylpiperazin-1-yl)ethyl)-1H-pyrrolo[2,3-b]pyridin-3-yl)pyrazolo[1,5-a]pyrimidine-3-carboxamide], the “JAK2 JH1% Inhibition @ 10 μM” value at JAK2 kinase domain (JH1) (10 μM compound, 10 μM ATP) is on record as “A (percent inhibition at 10 μM lower than 50)”. Moreover, the “Tyk2 JH1% Inhibition @ 10 μM” value at Tyk2 kinase domain (DH1) (10 μM compound, 10 μM ATP) is “A (percent inhibition at 10 μM lower than 50)”.

As for `CNc1cc(Nc2cccn(-c3ccccn3)c2=O)nc2c(C(=O)N[C@H]3CC[C@@H]3OC)cnn12` [I-909, N-((1S,2S)-2-methoxycyclobutyl)-7-(methylamino)-5-((2-oxo-2H-[1,2′-bipyridin]-3-yl)amino)pyrazolo[1,5-a]pyrimidine-3-carboxamide], the inhibition at 10 µM at JAK2 kinase domain (JH1) and on Tyk2 kinase domain (DH1) was less than 50% in each case.

With `CNc1cc(Nc2cccn(C(C)C)c2=O)nc2c(C(=O)N[C@H]3CCC[C@H](O)C3)cnn12` [I-919, 5-N-(3-hydroxycyclohexyl)-5-((1-isopropyl-2-oxo-1,2-dihydropyridin-3-yl)amino)-7-(methylamino)pyrazolo[1,5-a]pyrimidine-3-carboxamide], at JAK2 kinase domain (JH1) (10 μM compound, 10 μM ATP), the “JAK2 JH1% Inhibition @ 10 μM” value is on record as “A (percent inhibition at 10 μM lower than 50)”. Moreover, the “Tyk2 JH1% Inhibition @ 10 μM” value on Tyk2 kinase domain (DH1) (10 μM compound, 10 μM ATP) was “A (percent inhibition at 10 μM lower than 50)”.

Consider `CNc1cc(-c2cn(CCN3CCN(C)CC3)c3ncccc23)nc2c(C(=O)N[C@H]3CC[C@@H]3O)cnn12` [I-920, N-((1S,2S)-2-hydroxycyclobutyl)-7-(methylamino)-5-(1-(2-(4-methylpiperazin-1-yl)ethyl)-1H-pyrrolo[2,3-b]pyridin-3-yl)pyrazolo[1,5-a]pyrimidine-3-carboxamide], for which, on JAK2 kinase domain (JH1) (10 μM compound, 10 μM ATP), the “JAK2 JH1% Inhibition @ 10 μM” value was “A (percent inhibition at 10 μM lower than 50)”. Also, the “Tyk2 JH1% Inhibition @ 10 μM” value on Tyk2 kinase domain (DH1) (10 μM compound, 10 μM ATP) is listed as “A (percent inhibition at 10 μM lower than 50)”.

Take `CNc1cc(Nc2cccn([C@H]3CC[C@@H]3OC)c2=O)nc2c(C(=O)NC3CC3)cnn12` [I-936]: the “JAK2 JH1% Inhibition @ 10 μM” value on JAK2 kinase domain (JH1) (10 μM compound, 10 μM ATP) is reported as “A (percent inhibition at 10 μM lower than 50)”. Besides, the “Tyk2 JH1% Inhibition @ 10 μM” value at Tyk2 kinase domain (DH1) (10 μM compound, 10 μM ATP) is recorded as “A (percent inhibition at 10 μM lower than 50)”.

`CNc1cc(Nc2cccn(-c3ccccc3F)c2=O)nc2c(C(=O)N[C@H]3CC[C@H]3O)cnn12` [I-939]: the “JAK2 JH1% Inhibition @ 10 μM” value at JAK2 kinase domain (JH1) (10 μM compound, 10 μM ATP) is listed as “A (percent inhibition at 10 μM lower than 50)”. The “Tyk2 JH1% Inhibition @ 10 μM” value at Tyk2 kinase domain (DH1) (10 μM compound, 10 μM ATP) was “A (percent inhibition at 10 μM lower than 50)”.

For the molecule `CNc1cc(Nc2cccn(-c3ccccc3F)c2=O)nc2c(C(=O)N[C@@H]3CC[C@H]3O)cnn12` [I-940], the “JAK2 JH1% Inhibition @ 10 μM” value at JAK2 kinase domain (JH1) (10 μM compound, 10 μM ATP) is listed as “A (percent inhibition at 10 μM lower than 50)”. In addition, on Tyk2 kinase domain (DH1) (10 μM compound, 10 μM ATP), the “Tyk2 JH1% Inhibition @ 10 μM” value is “A (percent inhibition at 10 μM lower than 50)”.

Regarding `CNc1cc(Nc2cccn(-c3cccc(F)c3)c2=O)nc2c(C(=O)N[C@H]3CC[C@H]3O)cnn12` [I-945], the inhibition at 10 µM on JAK2 kinase domain (JH1) (10 μM compound, 10 μM ATP) is less than 50%; on Tyk2 kinase domain (DH1) (10 μM compound, 10 μM ATP), less than 50%.

The term inhibition denotes the share of the control response that was lost under treatment.
